Data published in US20100298141A1, “SUBSTITUTED PYRIDINE N-OXIDE HERBICIDES” (E. I. DU PONT DE NEMOURS AND COMPANY, priority 2007, published 2010).

How the values were obtained:
Italian ryegrass = assay: Test C pre-/postemergence test; type: in vivo, Lolium multiflorum
Summary of the method: (§1)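 Test chemicals were formulated with surfactant in a non-phytotoxic solvent and sprayed both on freshly planted seeds (preemergence) and on 1- to 4-leaf plants of 2–18 cm (postemergence). Flooded-paddy pots received compound directly into 3 cm of standing water, maintained for the test.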

purple nutsedge = assay: Test F preemergence test; type: in vivo, Cyperus rotundus; settings: scale 0 to 100
Summary of the method: (§2)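 Compound in a non-phytotoxic solvent blend with surfactant is applied preemergence to planted seeds or postemergence to sugarcane plants. Plants and controls stay in the greenhouse 14 to 21 days before visual comparison.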

broadleaf signalgrass = assay: Test F preemergence test; type: in vivo, Brachiaria platyphylla; settings: scale 0 to 100
Summary of the method: as §2

dallisgrass = assay: Test F preemergence test; type: in vivo, Paspalum dilatatum; settings: scale 0 to 100
Summary of the method: as §2

green foxtail = assay: Test C pre-/postemergence test; type: in vivo, Setaria viridis
Summary of the method: as §1

itchgrass = assay: Test F preemergence test; type: in vivo, Rottboellia cochinchinensis; settings: scale 0 to 100
Summary of the method: as §2

common groundsel = assay: Test F preemergence test; type: in vivo, Senecio vulgaris; settings: scale 0 to 100
Summary of the method: as §2

barnyardgrass = assay: Test A pre-/postemergence greenhouse test; type: in vivo, Echinochloa crus-galli; settings: for Barnyardgrass plant response rating: 0 to 100 scale
Summary of the method: (§3)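 Herbicidal effect is a visual injury score given about ten days post-treatment by comparison with untreated controls. Preemergence plots received a directed spray onto sown loam–sand soil; postemergence plants, at the one- to two-leaf stage and 2–10 cm tall, were sprayed at the same time.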

Virginia dayflower = assay: Test F preemergence test; type: in vivo, Commelina virginica; settings: scale 0 to 100
Summary of the method: as §2

kochia = assay: Test F preemergence test; type: in vivo, Kochia scoparia; settings: scale 0 to 100; for Plant response rating, Kochia: Preemergence
Summary of the method: as §2

velvetleaf = assay: Test A pre-/postemergence greenhouse test; type: in vivo, Abutilon theophrasti; settings: for Velvetleaf plant response rating: 0 to 100 scale
Summary of the method: as §3

goosegrass = assay: Test F preemergence test; type: in vivo, Eleusine indica; settings: scale 0 to 100
Summary of the method: as §2

johnsongrass = assay: Test F preemergence test; type: in vivo, Sorghum halepense; settings: scale 0 to 100
Summary of the method: as §2

[1] = 31 g ai/ha, Preemergence, scale 0 to 100
[2] = 62 g ai/ha, preemergence, scale 0 (no effect) to 100 (complete control)
[3] = preemergence, 125 g ai/ha, scale 0 (no effect) to 100 (complete control)
[4] = Postemergence, 125 g ai/ha, 0 is no effect, 100 is complete control
[5] = Postemergence, 500 g ai/ha, 0 is no effect, 100 is complete control
[6] = Preemergence, 125 g ai/ha, 0 no effect, 100 complete control
[7] = Preemergence, 500 g ai/ha, 0 to 100 scale where 0 is no effect and 100 is complete control

Cc1cc[n+]([O-])c(S(=O)(=O)C(C)c2c(C(F)(F)F)nn(C)c2OC(F)F)c1 (centres unmarked) [Compound 11]
40: Ryegrass, Italian plant response rating (Italian ryegrass; [2]) | Plant response rating, Itchgrass (itchgrass; Preemergence, 31 g ai/ha) | Velvetleaf plant response rating (velvetleaf; [4])
100: Purple Nutsedge plant response rating (purple nutsedge; 62 g ai/ha, Preemergence) | Purple Nutsedge plant response rating (purple nutsedge; 125 g ai/ha, preemergence) | Dallisgrass plant response rating (dallisgrass; 125 g ai/ha, preemergence) | Foxtail, Green plant response rating (green foxtail; [2]) | Plant response rating (0 to 100), Foxtail, Green (green foxtail; Preemergence, 250 g ai/ha) | Foxtail, Green plant response rating (green foxtail; [3]) | Plant response rating, Barnyardgrass (barnyardgrass; [7]) | Dayflower plant response rating (Virginia dayflower; 62 g ai/ha, Preemergence) | Dayflower plant response rating (Virginia dayflower; 125 g ai/ha, preemergence) | Kochia plant response rating (kochia; 125 g ai/ha, preemergence) | Plant response rating, Kochia (kochia; 31 g ai/ha) | Goosegrass plant response rating (goosegrass; 125 g ai/ha, preemergence)
90: Dallisgrass plant response rating (dallisgrass; 62 g ai/ha, Preemergence) | Barnyardgrass plant response rating (barnyardgrass; [6]) | Plant response rating, Velvetleaf (velvetleaf; [7]) | Plant response rating, Goosegrass (goosegrass; Preemergence, 31 g ai/ha) | Johnsongrass plant response rating (johnsongrass; 62 g ai/ha, Preemergence)
70: Ryegrass, Italian plant response rating (Italian ryegrass; [3]) | Itchgrass plant response rating (itchgrass; 62 g ai/ha, Preemergence) | Barnyardgrass plant response rating (barnyardgrass; [4]) | Plant response rating, Goosegrass (goosegrass; Preemergence, 16 g ai/ha) | Plant response rating, Johnsongrass (johnsongrass; Preemergence, 16 g ai/ha) | Plant response rating, Johnsongrass (johnsongrass; Preemergence, 31 g ai/ha)
60: Velvetleaf plant response rating (velvetleaf; [5])
98: Groundsel plant response rating (common groundsel; 125 g ai/ha, preemergence) | Goosegrass plant response rating (goosegrass; 62 g ai/ha, Preemergence)
25: Plant response rating, Purple Nutsedge (purple nutsedge; Preemergence, 16 g ai/ha) | Plant response rating, Groundsel (common groundsel; Preemergence, 31 g ai/ha)
75: Signalgrass plant response rating (broadleaf signalgrass; 62 g ai/ha, Preemergence) | Signalgrass plant response rating (broadleaf signalgrass; 125 g ai/ha, preemergence)
95: Itchgrass plant response rating (itchgrass; 125 g ai/ha, preemergence) | Groundsel plant response rating (common groundsel; 62 g ai/ha, Preemergence) | Johnsongrass plant response rating (johnsongrass; 125 g ai/ha, preemergence)
0: Ryegrass, Italian plant response rating (Italian ryegrass; [1]) | Plant response rating, Itchgrass (itchgrass; Preemergence, 16 g ai/ha) | Plant response rating, Groundsel (common groundsel; Preemergence, 16 g ai/ha) | Plant response rating, Dayflower (Virginia dayflower; Preemergence, 16 g ai/ha) | Plant response rating, Kochia (kochia; 16 g ai/ha)
65: Plant response rating, Purple Nutsedge (purple nutsedge; Preemergence, 31 g ai/ha) | Plant response rating, Signalgrass (broadleaf signalgrass; Preemergence, 31 g ai/ha) | Plant response rating, Dallisgrass (dallisgrass; Preemergence, 16 g ai/ha)
80: Plant response rating (0 to 100), Ryegrass, Italian (Italian ryegrass; Preemergence, 250 g ai/ha) | Plant response rating, Dallisgrass (dallisgrass; Preemergence, 31 g ai/ha) | Foxtail, Green plant response rating (green foxtail; [1]) | Barnyardgrass plant response rating (barnyardgrass; [5]) | Plant response rating, Dayflower (Virginia dayflower; Preemergence, 31 g ai/ha) | Velvetleaf plant response rating (velvetleaf; [6])
